16 substances from patent US12115209B2, “ROMO1-derived antimicrobial peptides including lysine substitution and variants thereof” (KOREA UNIVERSITY RESEARCH AND BUSINESS FOUNDATION, priority 2019, dated 2024) can be followed below.

Holding throughout (assay type): cell-based
For assay [1], the system named is Methicillin-resistant Staphylococcus aureus (MRSA, ATCC 33591). Description: Minimum bactericidal concentration (MBC) assay. The conditions noted are these: Tables 11-21, no unit printed. Also on record: unit: µg/mL. The procedure, abridged: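 Peptide at 0 to 300 μg/ml reacted 1 h at 37 °C with 1×10^5 CFU/ml bacteria in SP buffer (10 mM sodium phosphate, 1% TSB), bacteria pre-grown in 3% TSB. Aliquots then spread on TS agar and checked for colonies after 18 h at 37 °C.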

Assay [2] deals with Pseudomonas aeruginosa (ATCC 27853). Description: Minimum bactericidal concentration (MBC) assay. Also on record: MBC Pseudomonas aeruginosa: unit: µg/mL. The conditions noted are these: Tables 11-21, no unit printed. The procedure, abridged: (§1)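 Strains were cultured in 3% TSB at 37° C and brought to 2×10^5 CFU/ml in SP buffer. This suspension was mixed with peptide (0–300 μg/ml) for 1 h at 37° C. Reaction mixtures were then plated on TS agar and incubated 18 h.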

For assay [3], the system named is Staphylococcus aureus (ATCC 29213). Briefly: Minimum bactericidal concentration (MBC) assay. Details: MBC Staphylococcus aureus: unit: µg/mL. As to conditions: Tables 11-21, no unit printed. The procedure, abridged:
as §1

Assay [4] relates to Pseudomonas aeruginosa, Staphylococcus aureus, CRPA, MRSA. Description: Increase in antibacterial activity (MBC) compared with KU-5878. As to conditions: mark = antibacterial activity increased compared with KU-5878.
Another assay relates to CRPA. Description: Minimum bactericidal concentration (MBC) assay. Details: unit: µg/mL. The conditions noted are these: Tables 11-21, no unit printed.

No end group written: not given here.

The substance “KKMMKKGGKFG-FMAIGMGIR [Peptide 5878-K4-d69T]” gave an MBC MRSA in assay [1] of 2 µg/mL. For the same substance, the MBC Pseudomonas aeruginosa in assay [2] turned out to be 4 µg/mL. For the same substance, the MBC Staphylococcus aureus in assay [3] was found to be 2 µg/mL. In addition, the Increase in activity result in assay [4] is “◯”. The MBC CRPA against CRPA was determined as 3 µg/mL.

Take KKMMKKGGKFGGFMAIGMGIR [Peptide K4-T69G]: in assay [1], the “MBC MRSA” value is given as 3. Moreover, in assay [2], the “MBC Pseudomonas aeruginosa” value amounted to 2. In assay [3], the “MBC Staphylococcus aureus” value came to 2. For the same substance, the Increase in activity entry in assay [4] was “◯”. Besides, in the assay with CRPA, the “MBC CRPA” value is given as 2.

As to KKMMKKGGKFGTF--IG-GIR [d 71M 72A 75M], the MBC MRSA in assay [1] was found to be 3 µg/mL. This substance yielded an MBC Pseudomonas aeruginosa in assay [2] of 2 µg/mL. In assay [3], this substance had an MBC Staphylococcus aureus of 3 µg/mL. Besides, the Increase in activity result in assay [4] was “◯”. Further, the MBC CRPA against CRPA was determined as 2 µg/mL.

The substance “KKMMKKGGKFGTF--IGMGIR [Peptide K4-d71M-d72A]” returned an MBC MRSA in assay [1] of 20 µg/mL. In assay [2], this substance gave an MBC Pseudomonas aeruginosa of 20 µg/mL. This substance also registered an MBC Staphylococcus aureus in assay [3] of 20 µg/mL. For the same substance, the Increase in activity result in assay [4] is “◯”. Also, in the assay with CRPA, the MBC CRPA was found to be 20 µg/mL.

In turn, “KKMMKKGGKFGTF-AIG-GIR [Peptide K4-d71M-d75M]” yielded an MBC MRSA in assay [1] of 5 µg/mL. For the same substance, the MBC Pseudomonas aeruginosa in assay [2] was 4 µg/mL. The same substance had an MBC Staphylococcus aureus in assay [3] of 3 µg/mL. For the same substance, the Increase in activity entry in assay [4] is on record as “◯”. Also, in the assay with CRPA, the MBC CRPA amounted to 4 µg/mL.

Substance “KKMMKKGGKFGTF-AIGMGIR [Peptide 5878-K4-d71M]” had an MBC MRSA in assay [1] of 4 µg/mL. In assay [2], the MBC Pseudomonas aeruginosa is 2 µg/mL. This substance also returned an MBC Staphylococcus aureus in assay [3] of 4 µg/mL. In addition, in assay [4], the Increase in activity entry is recorded as “◯”. In the assay with CRPA, this substance displayed an MBC CRPA of 6 µg/mL.

Turning to “KKMMKKGGKFGTFM-IGMGIR [Peptide 5878-K4-d72A]”, the MBC MRSA in assay [1] turned out to be 3 µg/mL. In assay [2], this substance displayed an MBC Pseudomonas aeruginosa of 2 µg/mL. In addition, the MBC Staphylococcus aureus in assay [3] came out at 2 µg/mL. In addition, the Increase in activity result in assay [4] is on record as “◯”. This substance also gave an MBC CRPA with CRPA of 4 µg/mL.

Consider “KKMMKKGGKFGTFMAI-MGIR [Peptide 5878-K4-d74G]”, for which the MBC MRSA in assay [1] came out at 3 µg/mL. The MBC Pseudomonas aeruginosa in assay [2] is 2 µg/mL. Besides, the MBC Staphylococcus aureus in assay [3] was 2 µg/mL. For the same substance, the Increase in activity entry in assay [4] is recorded as “◯”. The same substance displayed an MBC CRPA in the assay on CRPA of 4 µg/mL.

For the substance “KKMMKKGGKFGTFMAIG-GIR [Peptide 5878-K4-d75M]”, the MBC MRSA in assay [1] was 2 µg/mL. In assay [2], the MBC Pseudomonas aeruginosa was determined as 2 µg/mL. Also, the MBC Staphylococcus aureus in assay [3] came out at 2 µg/mL. In addition, in assay [4], the Increase in activity result was “◯”. In addition, the MBC CRPA with CRPA was 4 µg/mL.

With “KKMMKKGGKFGTFMAIGM-IR [Peptide 5878-K4-d76G]”, in assay [1], the MBC MRSA amounted to 4 µg/mL. Besides, the MBC Pseudomonas aeruginosa in assay [2] worked out at 4 µg/mL. Moreover, the MBC Staphylococcus aureus in assay [3] is 4 µg/mL. Moreover, in assay [4], the Increase in activity entry is “◯”. The substance further returned an MBC CRPA against CRPA of 4 µg/mL.

In assay [1], “KKMMKKGGKFGTFMAIGMG-R [Peptide 5878-K4-d77I]” gave an MBC MRSA of 4 µg/mL. This substance also returned an MBC Pseudomonas aeruginosa in assay [2] of 4 µg/mL. In assay [3], this substance registered an MBC Staphylococcus aureus of 7 µg/mL. Also, the Increase in activity result in assay [4] is “◯”. The MBC CRPA with CRPA was found to be 6 µg/mL.

Regarding “KKMMKKGGKFGTFMAIGMGI- [Peptide 5878-K4-78R]”, in assay [1], the MBC MRSA turned out to be 4 µg/mL. Besides, the MBC Pseudomonas aeruginosa in assay [2] is 4 µg/mL. This substance also yielded an MBC Staphylococcus aureus in assay [3] of 10 µg/mL. Also, the Increase in activity entry in assay [4] is on record as “◯”. The MBC CRPA in the assay on CRPA is 8 µg/mL.

In assay [1], “KKMMKKGGTFGTFMAIGMGIR [KU-5878-K3 (T59K, Q62K, S63K)]” showed an MBC MRSA of 5 µg/mL. Besides, in assay [2], the MBC Pseudomonas aeruginosa is 4 µg/mL. This substance also showed an MBC Staphylococcus aureus in assay [3] of 4 µg/mL. Further, in assay [4], the Increase in activity entry is “◯”. The same substance gave an MBC CRPA in the assay on CRPA of 4 µg/mL.

In assay [1], “KKMMKSGGTFGTFMAIGMGIR [KU-5878-K2(T59K, Q62K)]” came in with an MBC MRSA of 8 µg/mL. Further, the MBC Pseudomonas aeruginosa in assay [2] was found to be 8 µg/mL. Also, in assay [3], the MBC Staphylococcus aureus is 8 µg/mL. The Increase in activity entry in assay [4] is “◯”. The same substance gave an MBC CRPA in the assay with CRPA of 6 µg/mL.

As for KKMMQSGGTFGTFMAIGMGIR [KU-5878-T59K], the MBC MRSA in assay [1] came out at 50 µg/mL. In assay [2], this substance had an MBC Pseudomonas aeruginosa of 50 µg/mL. The substance also displayed an MBC Staphylococcus aureus in assay [3] of 40 µg/mL. In assay [4], the Increase in activity entry is on record as “◯”. Besides, the MBC CRPA against CRPA amounted to 50 µg/mL.

As to “KT-MQSGGTFGTFMAIGMGIR [Peptide 5878-d60M]”, the MBC MRSA in assay [1] is 100 µg/mL. The MBC Pseudomonas aeruginosa in assay [2] is 90 µg/mL. This substance also displayed an MBC Staphylococcus aureus in assay [3] of 90 µg/mL. Moreover, the Increase in activity in assay [4] came to 0. For the same substance, the MBC CRPA in the assay on CRPA was determined as 90 µg/mL.
